For 32 compounds, IC50 results are on record in US20250171431A1, “HETEROCYCLIC INHIBITORS OF IGF-1R FOR TREATMENT OF DISEASE” (HORIZON THERAPEUTICS IRELAND DAC, priority 2023, published 2025).

Sequence of IGF-1R (P08069 31-1367): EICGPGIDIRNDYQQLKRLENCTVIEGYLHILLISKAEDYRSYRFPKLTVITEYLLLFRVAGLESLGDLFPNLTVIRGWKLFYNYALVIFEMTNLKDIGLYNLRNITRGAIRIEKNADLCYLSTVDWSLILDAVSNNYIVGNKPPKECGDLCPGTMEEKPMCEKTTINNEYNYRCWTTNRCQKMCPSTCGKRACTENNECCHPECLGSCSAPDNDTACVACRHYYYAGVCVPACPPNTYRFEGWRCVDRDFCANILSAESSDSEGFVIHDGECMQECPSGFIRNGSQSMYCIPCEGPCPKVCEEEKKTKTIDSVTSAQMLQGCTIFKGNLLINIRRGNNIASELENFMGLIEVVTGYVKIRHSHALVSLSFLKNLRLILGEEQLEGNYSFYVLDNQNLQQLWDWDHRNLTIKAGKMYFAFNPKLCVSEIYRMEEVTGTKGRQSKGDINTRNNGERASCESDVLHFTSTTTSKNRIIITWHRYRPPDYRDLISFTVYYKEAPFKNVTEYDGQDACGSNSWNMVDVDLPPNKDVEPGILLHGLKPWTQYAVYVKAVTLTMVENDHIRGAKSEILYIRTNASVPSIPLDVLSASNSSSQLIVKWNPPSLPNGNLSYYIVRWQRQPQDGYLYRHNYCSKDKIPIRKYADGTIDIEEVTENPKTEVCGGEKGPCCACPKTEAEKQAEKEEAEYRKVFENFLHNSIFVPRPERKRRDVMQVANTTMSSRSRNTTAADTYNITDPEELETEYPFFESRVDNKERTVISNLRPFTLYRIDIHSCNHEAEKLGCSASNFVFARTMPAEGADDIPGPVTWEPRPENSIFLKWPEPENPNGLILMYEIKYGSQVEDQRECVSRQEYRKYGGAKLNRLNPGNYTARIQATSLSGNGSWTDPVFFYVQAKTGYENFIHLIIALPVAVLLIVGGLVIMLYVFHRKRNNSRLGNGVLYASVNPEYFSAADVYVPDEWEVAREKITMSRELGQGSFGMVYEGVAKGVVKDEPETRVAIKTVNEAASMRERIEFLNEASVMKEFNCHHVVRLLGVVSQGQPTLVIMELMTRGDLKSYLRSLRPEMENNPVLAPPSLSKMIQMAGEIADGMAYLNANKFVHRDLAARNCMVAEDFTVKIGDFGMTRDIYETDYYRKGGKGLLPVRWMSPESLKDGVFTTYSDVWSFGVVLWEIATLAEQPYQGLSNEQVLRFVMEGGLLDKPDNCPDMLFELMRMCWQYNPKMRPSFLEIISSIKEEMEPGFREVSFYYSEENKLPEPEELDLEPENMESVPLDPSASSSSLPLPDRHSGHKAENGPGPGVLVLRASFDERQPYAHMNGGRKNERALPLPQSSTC

The target in the test is IGF-1R (Homo sapiens (Human), UniProt P08069). Nature of the test: Example B-1: IGF-1R Assay (PC3 cells, IGF1 stimulation, AlphaLISA). Type of test: cell-based. The note with it: 200 ng/mL IGF1 stimulation, read-out: Biological Activity against IGF-1R IC50. The method in brief:
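PC3 cells were serum-starved 2 h, treated with serially diluted compounds for 2 h, then stimulated with IGF1 (200 ng/mL final) for 30 min. Lysates were read by AlphaLISA; % inhibition was calculated relative to vehicle and EC80 controls, with IC50 values binned into ranges.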
For `COc1cc(Nc2nccc(Nc3cnc4ccc(Cl)cc4c3)n2)ccc1OC1CN(C)C1` [Compound 293, 4-(6-chloro-3-quinolylamino)-2-[3-methoxy-4-(1-methyl-3-azetidinyloxy)phenylamino] pyrimidine], the IC50 is above 10 µM.

With `CN1CC(Oc2ccc(Nc3nccc(Nc4cnc5ccc(Cl)cc5c4)n3)cc2)C1` [Compound 294, 4-(6-chloro-3-quinolylamino)-2-[p-(1-methyl-3-azetidinyloxy)phenylamino] pyrimidine], the IC50 was 2 to 10 µM.

On to `CN1CC(Oc2ccc(Nc3nccc(Nc4cnc5ccccc5c4)n3)cc2)C1` [Compound 295, 2-[p-(1-methyl-3-azetidinyloxy)phenylamino]-4-(3-quinolylamino)pyrimidine], for which the IC50 lay within 2 to 10 µM.

For `COc1cc(Nc2nccc(Nc3cc4ccccc4nc3C(=O)O)n2)ccc1O[C@H]1C[C@@H](N(C)C)C1` [Compound 296, 3-(2-{3-methoxy-4-[(1s,3s)-3-(dimethylamino)cyclobutoxy]phenylamino}-4-pyrimidinylamino)-2-quinolinecarboxylic acid], the IC50 was above 10 µM.

Regarding `COc1cc(Nc2nccc(Nc3cnc4c(F)c(F)ccc4c3)n2)ccc1O[C@H]1C[C@@H](N(C)C)C1` [Compound 298, 4-(7,8-difluoro-3-quinolylamino)-2-{3-methoxy-4-[(1s,3s)-3-(dimethylamino)cyclobutoxy]phenylamino}pyrimidine], the IC50 is at most 0.5 µM.

As for `COc1cc(Nc2nccc(Nc3cnc4cc[nH]c4c3)n2)ccc1O[C@H]1C[C@@H](N(C)C)C1` [Compound 299, 4-(1H-1,4-diazainden-6-ylamino)-2-{3-methoxy-4-[(1s,3s)-3-(dimethylamino)cyclobutoxy]phenylamino}pyrimidine], the half-maximal inhibitory concentration (IC50) was 0.5 to 2 µM.

On to `COc1cc(Nc2nccc(Nc3cnc4[nH]ncc4c3)n2)ccc1O[C@H]1C[C@@H](N(C)C)C1` [Compound 300, 2-{3-methoxy-4-[(1s,3s)-3-(dimethylamino)cyclobutoxy]phenylamino}-4-(1H-1,2,7-triazainden-5-ylamino)pyrimidine], for which the 50% inhibitory concentration (IC50) was 0.5 to 2 µM.

For `COc1cc(Nc2nccc(Nc3cnc4[nH]ccc4c3)n2)ccc1O[C@H]1C[C@@H](N(C)C)C1` [Compound 301, 4-(1H-1,7-diazainden-5-ylamino)-2-{3-methoxy-4-[(1s,3s)-3-(dimethylamino)cyclobutoxy]phenylamino}pyrimidine], the IC50 was at most 0.5 µM.

As to `C#Cc1ccc2ncc(Nc3ccnc(Nc4ccc(O[C@H]5C[C@@H](N(C)C)C5)c(OC)c4)n3)cc2c1` [Compound 302, 4-(6-ethynyl-3-quinolylamino)-2-{3-methoxy-4-[(1s,3s)-3-(dimethylamino)cyclobutoxy]phenylamino}pyrimidine], the IC50 was at most 0.5 µM.

With `COc1cc(Nc2nccc(Nc3cnc4c(c3)CC3(CC4)OCCO3)n2)ccc1OCCCN1CCCCC1` [Compound 303, 4-(7′,8′-dihydro-5′H-spiro[1,3-dioxolane-2,6′-quinolin]-3′-ylamino)-2-[3-methoxy-4-(3-piperidinopropoxy)phenylamino] pyrimidine], the IC50 was at most 0.5 µM.

For `COc1cc(Nc2nccc(Nc3cnc4c(=O)n(C)ncc4c3)n2)ccc1O[C@H]1C[C@@H](N(C)C)C1` [Compound 304, 3-(2-{3-methoxy-4-[(1s,3s)-3-(dimethylamino)cyclobutoxy]phenylamino}-4-pyrimidinylamino)-7-methyl-1,6,7-triaza-8(7H)-naphthalenone], the IC50 was above 10 µM.

On to `COc1cc(Nc2nccc(Nc3ncc4c(Cl)cccc4n3)n2)ccc1O[C@H]1C[C@@H](N(C)C)C1` [Compound 306, 4-(5-chloro-2-quinazolinylamino)-2-{3-methoxy-4-[(1s,3s)-3-(dimethylamino)cyclobutoxy]phenylamino}pyrimidine], for which the IC50 is above 10 µM.

On to `COc1cc(Nc2nccc(Nc3ncc4ccc(Br)cc4n3)n2)ccc1O[C@H]1C[C@@H](N(C)C)C1` [Compound 307, 4-(7-bromo-2-quinazolinylamino)-2-{3-methoxy-4-[(1s,3s)-3-(dimethylamino)cyclobutoxy]phenylamino}pyrimidine], for which the IC50 lay within 2 to 10 µM.

For the compound `O=C1CN([C@H]2CC[C@@H](Oc3ccc(Nc4nccc(Nc5cnc6ccc(Cl)cc6c5)n4)cc3)CC2)CCN1` [Compound 308], the IC50 was at most 0.5 µM.

As for `CN(C)[C@H]1CC[C@@H](Oc2ccc(Nc3nccc(Nc4cnc5ccc(Cl)cc5c4)n3)cc2)CC1` [Compound 310, 4-(6-chloro-3-quinolylamino)-2-{p-[(1s,4s)-4-(dimethylamino)cyclohexyloxy]phenylamino}pyrimidine], the IC50 is at most 0.5 µM.

Take `Clc1ccc2ncc(Nc3ccnc(Nc4ccc(O[C@H]5CC[C@@H](N6CCOCC6)CC5)cc4)n3)cc2c1` [Compound 311, 4-(6-chloro-3-quinolylamino)-2-{p-[(1s,4s)-4-morpholinocyclohexyloxy]phenylamino}pyrimidine]: the IC50 was at most 0.5 µM.

In the case of `COc1cc(Nc2nccc(Nc3cnc4c(OC)cccc4c3)n2)ccc1O[C@H]1C[C@@H](N(C)C)C1` [Compound 312, 4-(8-methoxy-3-quinolylamino)-2-{3-methoxy-4-[(1s,3s)-3-(dimethylamino)cyclobutoxy]phenylamino}pyrimidine], the IC50 was at most 0.5 µM.

With `COc1cc(Nc2nccc(Nc3cnc4ccc(C#N)cc4c3)n2)ccc1O[C@H]1C[C@@H](N(C)C)C1` [Compound 313, 3-(2-{3-methoxy-4-[(1s,3s)-3-(dimethylamino)cyclobutoxy]phenylamino}-4-pyrimidinylamino)-6-quinolinecarbonitrile], the IC50 was at most 0.5 µM.

For `COc1cc(Nc2nccc(Nc3ccc4ncc(Br)cc4n3)n2)ccc1O[C@H]1C[C@@H](N(C)C)C1` [Compound 314, 4-(7-bromo-1,5-diaza-2-naphthylamino)-2-{3-methoxy-4-[(1s,3s)-3-(dimethylamino)cyclobutoxy]phenylamino}pyrimidine], the IC50 is above 10 µM.

With `CN(C)[C@H]1C[C@H](Oc2ccc(Nc3nccc(Nc4cnc5c(c4)CCCC5)n3)cc2)C1` [Compound 315, 2-{p-[(1r,3r)-3-(dimethylamino)cyclobutoxy]phenylamino}-4-(5,6,7,8-tetrahydro-3-quinolylamino)pyrimidine], the IC50 was at most 0.5 µM.

Turning to `COc1cc(Nc2nccc(Nc3cnc4cc(Br)cnc4c3)n2)ccc1O[C@H]1C[C@@H](N(C)C)C1` [Compound 316, 4-(7-bromo-1,5-diaza-3-naphthylamino)-2-{3-methoxy-4-[(1s,3s)-3-(dimethylamino)cyclobutoxy]phenylamino}pyrimidine], the IC50 was at most 0.5 µM.

Take `CN(C)[C@H]1C[C@H](Oc2ccc(Nc3nccc(Nc4cnc5c(c4)OCCO5)n3)cc2)C1` [Compound 317, 4-(2,3-dihydro-1,4-dioxa-5-aza-7-naphthylamino)-2-{p-[(1r,3r)-3-(dimethylamino)cyclobutoxy]phenylamino}pyrimidine]: the IC50 was at most 0.5 µM.

Take `CN(C)[C@H]1C[C@H](Oc2ccc(Nc3nccc(Nc4cnc5c(c4)SCCC5)n3)cc2)C1` [Compound 318, 4-(3,4-dihydro-2H-1-thia-5-azanaphth-7-ylamino)-2-{p-[(1r,3r)-3-(dimethylamino)cyclobutoxy]phenylamino}pyrimidine]: the IC50 is at most 0.5 µM.

On to `CN(C)[C@H]1C[C@H](Oc2ccc(Nc3nccc(Nc4cnc5ccc(Cl)cc5c4)n3)cc2)C1` [Compound 319, 4-(6-chloro-3-quinolylamino)-2-{p-[(1r,3r)-3-(dimethylamino)cyclobutoxy]phenylamino}pyrimidine], for which the IC50 is at most 0.5 µM.

With `CN(C)[C@H]1C[C@H](Oc2ccc(Nc3nccc(Nc4cnc5ccc(Br)cc5c4)n3)cc2)C1` [Compound 320, 4-(6-bromo-3-quinolylamino)-2-{p-[(1r,3r)-3-(dimethylamino)cyclobutoxy]phenylamino}pyrimidine], the IC50 was at most 0.5 µM.

In the case of `COc1cc(Nc2nccc(Nc3cnc4c(c3)C3CCC4C3)n2)ccc1O[C@H]1C[C@@H](N(C)C)C1` (some centres unmarked) [Compound 321, 4-{3-azatricyclo[6.2.1.02,7]undeca-2(7),3,5-trien-5-ylamino}-2-{3-methoxy-4-[(1s,3s)-3-(dimethylamino)cyclobutoxy]phenylamino}pyrimidine], the IC50 is at most 0.5 µM.

`COc1cc(Nc2nccc(Nc3cnc4c(c3)CC3(CC4)OCCO3)n2)ccc1O[C@H]1C[C@@H](N(C)C)C1` [Compound 322, 4-(7′,8′-dihydro-5′H-spiro[1,3-dioxolane-2,6′-quinolin]-3′-ylamino)-2-{3-methoxy-4-[(1s,3s)-3-(dimethylamino)cyclobutoxy]phenylamino}pyrimidine]: the IC50 was at most 0.5 µM.

With `COc1cc(Nc2nccc(Nc3cnc4c(F)c(F)ccc4c3)n2)ccc1O[C@H]1C[C@H](N(C)C)C1` [Compound 323, 4-(7,8-difluoro-3-quinolylamino)-2-{3-methoxy-4-[(1r,3r)-3-(dimethylamino)cyclobutoxy]phenylamino}pyrimidine], the IC50 is at most 0.5 µM.

With `COc1cc(Nc2nccc(Nc3cnc4cc(Cl)ccc4c3)n2)ccc1O[C@H]1C[C@H](N(C)C)C1` [Compound 324, 4-(7-chloro-3-quinolylamino)-2-{3-methoxy-4-[(1r,3r)-3-(dimethylamino)cyclobutoxy]phenylamino}pyrimidine], the IC50 is at most 0.5 µM.

Turning to `COc1cc(Nc2nccc(Nc3cnc4ccc(C5CC5)cc4c3)n2)ccc1O[C@H]1C[C@H](N(C)C)C1` [Compound 325, 4-(6-cyclopropyl-3-quinolylamino)-2-{3-methoxy-4-[(1r,3r)-3-(dimethylamino)cyclobutoxy]phenylamino}pyrimidine], the IC50 is at most 0.5 µM.

`COc1cc(Nc2nccc(Nc3cnc4cc(O)ccc4c3)n2)ccc1O[C@H]1C[C@H](N(C)C)C1` [Compound 326, 3-(2-{3-methoxy-4-[(1r,3r)-3-(dimethylamino)cyclobutoxy]phenylamino}-4-pyrimidinylamino)-7-quinolinol]: the IC50 is at most 0.5 µM.

Take `Fc1cnc(Nc2ccc(O[C@H]3C[C@H](N4CCOCC4)C3)cc2)nc1Nc1cnc2ccccc2c1` [Compound 327, 5-fluoro-4-(3-quinolylamino)-2-{p-[(1r,3r)-3-morpholinocyclobutoxy]phenylamino}pyrimidine]: the IC50 is at most 0.5 µM.

The term IC50 denotes the point on the concentration scale where inhibition reaches its midpoint.
